For 39 compounds, IC50 results are on record in US10202354B2, “Therapeutic compounds and uses thereof” (GENENTECH, INC., priority 2015, dated 2019).

For the assay, the target named is Full length KDM2B (Homo sapiens (Human), UniProt Q8NHM5). The experiment in a line: KDM2B TR-FRET Assay for Determining Inhibitor IC50. It counts as biochemical. The conditions noted are these: TR-FRET (HTRF), biotin-H3K36me2 peptide substrate. An excerpt: KDM2B TR-FRET Assay for Determining Inhibitor IC50
The KDM2B TR-FRET Assay described above represents an additional embodiment of the invention.
(In general: Time-resolved FRET reads energy transfer from a long-lived donor to a nearby acceptor.)

Sequence of Full length KDM2B (Q8NHM5 whole entry): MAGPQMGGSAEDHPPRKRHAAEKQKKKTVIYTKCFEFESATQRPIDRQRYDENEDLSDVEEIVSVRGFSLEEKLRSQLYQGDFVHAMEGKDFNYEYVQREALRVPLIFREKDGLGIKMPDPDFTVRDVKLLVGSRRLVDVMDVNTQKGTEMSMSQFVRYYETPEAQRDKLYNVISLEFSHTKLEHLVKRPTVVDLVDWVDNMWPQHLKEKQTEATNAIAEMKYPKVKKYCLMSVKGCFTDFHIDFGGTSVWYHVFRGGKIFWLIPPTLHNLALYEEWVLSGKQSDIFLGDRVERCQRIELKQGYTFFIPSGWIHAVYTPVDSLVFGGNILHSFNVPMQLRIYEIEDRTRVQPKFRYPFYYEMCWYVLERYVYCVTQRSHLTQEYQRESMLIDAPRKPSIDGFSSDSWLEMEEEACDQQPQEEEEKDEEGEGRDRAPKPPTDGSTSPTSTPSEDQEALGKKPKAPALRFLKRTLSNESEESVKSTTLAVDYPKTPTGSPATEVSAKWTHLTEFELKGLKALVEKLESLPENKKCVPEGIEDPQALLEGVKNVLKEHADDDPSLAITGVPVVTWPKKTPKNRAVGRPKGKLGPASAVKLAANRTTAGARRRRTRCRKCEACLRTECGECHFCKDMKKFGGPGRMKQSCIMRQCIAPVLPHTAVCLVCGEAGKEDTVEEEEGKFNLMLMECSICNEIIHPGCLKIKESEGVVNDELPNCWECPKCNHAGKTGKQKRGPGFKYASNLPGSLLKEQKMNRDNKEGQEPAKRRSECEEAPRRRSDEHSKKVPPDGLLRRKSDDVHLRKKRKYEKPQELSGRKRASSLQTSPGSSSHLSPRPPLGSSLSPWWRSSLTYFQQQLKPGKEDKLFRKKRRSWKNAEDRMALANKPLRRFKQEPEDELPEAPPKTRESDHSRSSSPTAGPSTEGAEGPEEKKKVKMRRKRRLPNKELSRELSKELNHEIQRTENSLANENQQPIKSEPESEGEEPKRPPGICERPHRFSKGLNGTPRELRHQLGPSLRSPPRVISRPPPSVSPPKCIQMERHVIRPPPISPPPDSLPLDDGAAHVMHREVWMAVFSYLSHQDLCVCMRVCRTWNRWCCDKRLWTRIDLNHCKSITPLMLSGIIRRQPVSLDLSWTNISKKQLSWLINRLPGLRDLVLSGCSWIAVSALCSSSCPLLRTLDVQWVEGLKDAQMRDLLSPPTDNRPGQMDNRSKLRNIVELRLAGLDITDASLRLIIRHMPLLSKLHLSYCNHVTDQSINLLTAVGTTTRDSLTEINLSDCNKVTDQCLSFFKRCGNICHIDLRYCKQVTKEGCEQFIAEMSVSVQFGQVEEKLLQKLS

Broadly, the IC50 is the concentration needed to halve the response being measured. `Cc1ccccc1C(=O)N1CCN=C1N1CCN(C2CCC2)CC1` [Example 83, [2-(4-cyclobutylpiperazin-1-yl)-4,5-dihydroimidazol-1-yl]-(o-tolyl)methanone] registered an IC50 of 3.07 nM.

`CCN1CCN(C2=NCCN2S(=O)(=O)c2cccc3nonc23)CC1` [Example 120, 4-[[2-(4-ethylpiperazin-1-yl)-4,5-dihydroimidazol-1-yl]sulfonyl]-2,1,3-benzoxadiazole] gave an IC50 of 13.3 nM. The figure for `CCN1CCN(C2=NCCN2S(=O)(=O)c2ccccc2C#N)CC1` [Example 112, 2-[[2-(4-ethylpiperazin-1-yl)-4,5-dihydroimidazol-1-yl]sulfonyl]benzonitrile] is 9.81 nM; for `CC(C)c1ccc(S(=O)(=O)N2C[C@H](C3CC3)N=C2N2CCN(C3CCC3)CC2)cc1` [Example 42, (S)-1-cyclobutyl-4-(4-cyclopropyl-1-((4-isopropylphenyl)sulfonyl)-4,5-dihydro-1H-imidazol-2-yl)piperazine] it is 0.047 nM; for `CC(C)c1ccc(S(=O)(=O)N2CC3(CCCC3)N=C2N2CCN(C3CCC3)CC2)cc1` [Example 45, 2-(4-cyclobutylpiperazin-1-yl)-3-(4-isopropylphenyl)sulfonyl-1,3-diazaspiro[4.4]non-1-ene] it is 0.049 nM. `CCN1CCN(C2=NCCN2S(=O)(=O)c2ccc(-c3ccc(F)cc3)cc2)CC1` [Example 98, 1-ethyl-4-[1-[4-(4-fluorophenyl)phenyl]sulfonyl-4,5-dihydroimidazol-2-yl]piperazine] came in with an IC50 of 1.02 nM. The figure for `N#Cc1ccccc1-c1ccc(S(=O)(=O)N2CCN=C2N2CCN(C3CCC3)CC2)cc1` [Example 1, 2-[4-[[2-(4-cyclobutylpiperazin-1-yl)-4,5-dihydroimidazol-1-yl]sulfonyl]phenyl]benzonitrile] is 0.053 nM; for `O=S(=O)(c1cccc(C2CC2)c1)N1CCN=C1N1CCN(C2CCC2)CC1` [Example 35, 1-cyclobutyl-4-[1-(3-cyclopropylphenyl)sulfonyl-4,5-dihydroimidazol-2-yl]piperazine] it is 0.087 nM; for `Cc1cccc(C(=O)N2CCN=C2N2CCN(C3CCC3)CC2)c1` [Example 85, [2-(4-cyclobutylpiperazin-1-yl)-4,5-dihydroimidazol-1-yl]-(m-tolyl)methanone] it is 3.12 nM. In the case of `CCN1CCN(C2=NCCN2S(=O)(=O)c2cccc(OC(F)F)c2)CC1` [Example 104, 1-[1-[3-(difluoromethoxy)phenyl]sulfonyl-4,5-dihydroimidazol-2-yl]-4-ethyl-piperazine], half-maximal inhibition (IC50) was put at 7.76 nM. Consider `CC(C)c1ccc(S(=O)(=O)N2CCN=C2N2CCN(C3CC(F)C3)CC2)cc1` (stereo not drawn) [Example 40, 1-(3-fluorocyclobutyl)-4-[1-(4-isopropylphenyl)sulfonyl-4,5-dihydroimidazol-2-yl]piperazine], for which the IC50 came to 0.391 nM. For the compound `O=S(=O)(c1ccc(-c2ccccc2C(F)(F)F)cc1)N1CCN=C1N1CCN(C2CCC2)CC1` [Example 4, 1-cyclobutyl-4-[1-[4-[2-(trifluoromethyl)phenyl]phenyl]sulfonyl-4,5-dihydroimidazol-2-yl]piperazine], the IC50 came out at 0.102 nM. In the case of `CC(C)c1ccc(S(=O)(=O)N2CCN=C2N2CCN(CC3CC3C)CC2)cc1` (stereo not drawn) [Example 38, 1-[1-(4-isopropylphenyl)sulfonyl-4,5-dihydroimidazol-2-yl]-4-[(2-methylcyclopropyl)methyl]piperazine] it was 0.492 nM; in that of `CCN1CCN(C2=N[C@@H](C)CN2S(=O)(=O)c2ccc(C(C)C)cc2)CC1` [Example 44, (S)-1-ethyl-4-[1-(4-isopropylphenyl)sulfonyl-4-methyl-4,5-dihydroimidazol-2-yl]piperazine], 0.519 nM. The figure for `CC(C)c1ccc(S(=O)(=O)N2C[C@H](C)N=C2N2CCN(C3CCC3)CC2)cc1` [Example 47, (S)-1-cyclobutyl-4-[1-(4-isopropylphenyl)sulfonyl-4-methyl-4,5-dihydroimidazol-2-yl]piperazine] is 0.114 nM; for `O=S(=O)(c1ccc(-c2ccccc2O)cc1)N1CCN=C1N1CCN(C2CCC2)CC1` [Example 15, 2-[4-[[2-(4-cyclobutylpiperazin-1-yl)-4,5-dihydroimidazol-1-yl]sulfonyl]phenyl]phenol] it is 0.037 nM. Take `O=S(=O)(c1ccc(-c2ccccc2)cc1)N1CCN=C1N1CCN(C2CCC2)CC1` [Example 14, 1-cyclobutyl-4-[1-(4-phenylphenyl)sulfonyl-4,5-dihydroimidazol-2-yl]piperazine]: the IC50 came out at 0.048 nM. This IC50 and that of the compound before are within 1.5-fold of each other.

In turn, `O=S(=O)(c1ccc(-c2cncnc2)cc1)N1CCN=C1N1CCN(C2CCC2)CC1` [Example 30, 5-[4-[[2-(4-cyclobutylpiperazin-1-yl)-4,5-dihydroimidazol-1-yl]sulfonyl]phenyl]pyrimidine] had an IC50 of 0.06 nM. The figure for `O=S(=O)(c1ccc(-c2ccsc2)cc1)N1CCN=C1N1CCN(C2CCC2)CC1` [Example 20, 1-cyclobutyl-4-[1-[4-(3-thienyl)phenyl]sulfonyl-4,5-dihydroimidazol-2-yl]piperazine] is 0.021 nM. `O=S(=O)(c1ccc(-c2ccc(C(F)(F)F)cc2)cc1)N1CCN=C1N1CCN(C2CCC2)CC1` [Example 12, 1-cyclobutyl-4-[1-[4-[4-(trifluoromethyl)phenyl]phenyl]sulfonyl-4,5-dihydroimidazol-2-yl]piperazine] showed an IC50 of 0.38 nM. `Cc1ccc(-c2ccc(S(=O)(=O)N3CCN=C3N3CCN(C4CCC4)CC3)cc2)cc1` [Example 10, 1-cyclobutyl-4-[1-[4-(p-tolyl)phenyl]sulfonyl-4,5-dihydroimidazol-2-yl]piperazine] gave an IC50 of 0.145 nM.

`COc1cccc(C(=O)N2CCN=C2N2CCN(C3CCC3)CC2)c1` [Example 90, [2-(4-cyclobutylpiperazin-1-yl)-4,5-dihydroimidazol-1-yl]-(3-methoxyphenyl)methanone] displayed an IC50 of 2.29 nM. `O=S(=O)(c1ccc(C2CC2)cc1)N1CCN=C1N1CCN(C2CCC2)CC1` [Example 34, 1-cyclobutyl-4-[1-(4-cyclopropylphenyl)sulfonyl-4,5-dihydroimidazol-2-yl]piperazine] showed an IC50 of 0.058 nM. This IC50 is about 39-fold lower than that of the compound before. In the case of `CC(=O)Nc1ccc(S(=O)(=O)N2CCN=C2N2CCN(C3CCC3)CC2)cc1Cl` [Example 81, N-[2-chloro-4-[[2-(4-cyclobutylpiperazin-1-yl)-4,5-dihydroimidazol-1-yl]sulfonyl]phenyl]acetamide] it was 0.127 nM; in that of `CCN1CCN(C2=NCCN2S(=O)(=O)c2ccc(C(F)(F)F)cc2)CC1` [Example 107, 1-ethyl-4-[1-[4-(trifluoromethyl)phenyl]sulfonyl-4,5-dihydroimidazol-2-yl]piperazine], 3.92 nM.

Turning to `O=S(=O)(c1ccc(-c2ccc(Cl)cc2)cc1)N1CCN=C1N1CCN(C2CCC2)CC1` [Example 23, 1-[1-[4-(4-chlorophenyl)phenyl]sulfonyl-4,5-dihydroimidazol-2-yl]-4-cyclobutyl-piperazine], it took 0.275 nM to reach half-maximal inhibition (IC50). Compared with the last compound, the IC50 is about 14-fold lower. Consider `CCN1CCN(C2=NCCN2S(=O)(=O)c2c(F)cccc2F)CC1` [Example 108, 1-[1-(2,6-difluorophenyl)sulfonyl-4,5-dihydroimidazol-2-yl]-4-ethyl-piperazine], for which half-maximal inhibition (IC50) required 12.8 nM. The figure for `CCN1CCN(C2=NCCN2S(=O)(=O)c2cnn(CC)c2C)CC1` [Example 119, 1-ethyl-4-[1-(1-ethyl-5-methyl-pyrazol-4-yl)sulfonyl-4,5-dihydroimidazol-2-yl]piperazine] is 11.4 nM; for `CCN1CCN(C2=NCCN2S(=O)(=O)c2c(Cl)cccc2Cl)CC1` [Example 118, 1-[1-(2,6-dichlorophenyl)sulfonyl-4,5-dihydroimidazol-2-yl]-4-ethyl-piperazine] it is 1.02 nM. Take `COc1ccccc1-c1ccc(S(=O)(=O)N2CCN=C2N2CCN(C3CCC3)CC2)cc1` [Example 24, 1-cyclobutyl-4-[1-[4-(2-methoxyphenyl)phenyl]sulfonyl-4,5-dihydroimidazol-2-yl]piperazine]: the IC50 was 0.05 nM. This IC50 lies about 20-fold lower than the previous one.

In the case of `COc1ccc(C(=O)N2CCN=C2N2CCN(C3CCC3)CC2)cc1` [Example 89, [2-(4-cyclobutylpiperazin-1-yl)-4,5-dihydroimidazol-1-yl]-(4-methoxyphenyl)methanone], the IC50 amounted to 4.38 nM.

In turn, `CCN1CCN(C2=NCCN2S(=O)(=O)c2cc(Cl)ccc2Cl)CC1` [Example 106, 1-[1-(2,5-dichlorophenyl)sulfonyl-4,5-dihydroimidazol-2-yl]-4-ethyl-piperazine] returned an IC50 of 3.57 nM. The figure for `CCN1CCN(C2=NCCN2S(=O)(=O)c2cccc(Cl)c2)CC1` [Example 113, 1-[1-(3-chlorophenyl)sulfonyl-4,5-dihydroimidazol-2-yl]-4-ethyl-piperazine] is 9.06 nM.

On to `CCN1CCN(C2=NCCN2S(=O)(=O)c2ccc(OC(F)(F)F)cc2)CC1` [Example 102, 1-ethyl-4-[1-[4-(trifluoromethoxy)phenyl]sulfonyl-4,5-dihydroimidazol-2-yl]piperazine], for which the IC50 stood at 1.66 nM.

On to `O=S(=O)(c1ccc(-c2ccncc2)cc1)N1CCN=C1N1CCN(C2CCC2)CC1` [Example 18, 1-cyclobutyl-4-[1-[4-(4-pyridyl)phenyl]sulfonyl-4,5-dihydroimidazol-2-yl]piperazine], for which the IC50 was determined as 0.095 nM. With `CCN1CCN(C2=NCCN2S(=O)(=O)c2cccc(OC)c2)CC1` [Example 115, 1-ethyl-4-[1-(3-methoxyphenyl)sulfonyl-4,5-dihydroimidazol-2-yl]piperazine], half-maximal inhibition (IC50) required 3.57 nM. Against the preceding compound, the IC50 is about 38-fold higher. Take `O=C(c1ccccc1)N1CCN=C1N1CCN(C2CCC2)CC1` [Example 82, [2-(4-cyclobutylpiperazin-1-yl)-4,5-dihydroimidazol-1-yl]-phenyl-methanone]: the midpoint of inhibition, the IC50, lay at 7 nM. In turn, `N#Cc1cccc(-c2ccc(S(=O)(=O)N3CCN=C3N3CCN(C4CCC4)CC3)cc2)c1` [Example 13] showed an IC50 of 0.145 nM. In turn, `CCN1CCN(C2=NCCN2S(=O)(=O)c2ccc(C)cc2)CC1` [Example 117, 1-ethyl-4-[1-(p-tolylsulfonyl)-4,5-dihydroimidazol-2-yl]piperazine] displayed an IC50 of 3.76 nM.
